Measurements reported in ChEMBL document CHEMBL1212711, “Mechanistic and functional insights into fatty acid activation in Mycobacterium tuberculosis” (Nat Chem Biol, 2009).
Calls of active or inactive are those of the source. The rule behind the calls is not given here.

Experiments:
[1] = test system: Mycobacterium tuberculosis H37Rv; assay: Activity at Mycobacterium tuberculosis H37Rv FACL19 i mutant containing FAAL28 (342-372) residues instead of FACL6 (362-376) residues assessed as acy-CoA formation by radio-TLC assay
[2] = test system: Mycobacterium tuberculosis H37Rv; assay: Selectivity of Mycobacterium tuberculosis H37Rv FAAL28 deletion mutant over wild type FACL1
[3] = test system: Mycobacterium tuberculosis H37Rv; assay: Activity at Mycobacterium tuberculosis H37Rv FACL19 AS mutant containing 15 amino acid stretch of alanine and serine residues assessed as acy-CoA formation by radio-TLC assay
[4] = test system: Mycobacterium tuberculosis H37Rv; assay: Activity at Mycobacterium tuberculosis H37Rv FAAL28 deletion mutant assessed as conversion of lauroyl-AMP to lauryl-CoA by radio-TLC assay

CC(C)(COP(=O)(O)OP(=O)(O)OC[C@H]1O[C@@H](n2cnc3c(N)ncnc32)[C@H](O)[C@@H]1OP(=O)(O)O)[C@@H](O)C(=O)NCCC(=O)NCCS [COENZYME_A]
Activity [1]: inactive | fold change (FC) [2]: 10 | Activity [3]: inactive | kcat [4]: 19500 s⁻¹
